Test results reported in paper PMC6804997 (PLoS ONE, 2019).

Legend:
Assay in all cases: HDAC enzyme inhibition assay (Ac-peptide-AMC substrate)
Assay type in all cases: biochemical
HDAC11 = target: T1, HDAC11 (Homo sapiens, UniProt Q96DB2); details: HDAC11 vs HDAC6
T1 sequence (Q96DB2 1-347): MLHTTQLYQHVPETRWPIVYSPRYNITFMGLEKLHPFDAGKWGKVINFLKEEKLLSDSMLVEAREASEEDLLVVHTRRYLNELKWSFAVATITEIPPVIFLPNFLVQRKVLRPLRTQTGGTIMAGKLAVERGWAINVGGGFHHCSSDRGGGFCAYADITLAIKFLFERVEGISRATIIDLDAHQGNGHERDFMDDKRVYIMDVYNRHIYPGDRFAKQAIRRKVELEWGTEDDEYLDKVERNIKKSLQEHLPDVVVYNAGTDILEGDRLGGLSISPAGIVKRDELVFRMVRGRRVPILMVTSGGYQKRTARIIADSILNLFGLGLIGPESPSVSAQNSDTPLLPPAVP
Procedure: (§1) HDACs inhibition assay of F7 was performed utilizing 4-amino-7-methylcoumarin (AMC) labeled Ac-peptide (Ac-peptide-AMC) substrates, a service provided by Chempartner Company (Shanghai, China).
(§2) This assay was performed was performed utilizing 4-amino-7-methylcoumarin (AMC) labeled Ac-peptide (Ac-peptide-AMC) substrates, a service provided by Chempartner Company (Shanghai, China).

HDAC4 = HDAC4 (Homo sapiens, UniProt P56524); details: HDAC4 vs HDAC6
Procedure: as §1, §2

HDAC5 = HDAC5 (Homo sapiens, UniProt Q9UQL6); details: HDAC5 vs HDAC6
Procedure: as §1, §2

HDAC7 = target: T2, HDAC7 (Homo sapiens, UniProt Q8WUI4); details: HDAC7 vs HDAC6
T2 sequence (Q8WUI4 1-952): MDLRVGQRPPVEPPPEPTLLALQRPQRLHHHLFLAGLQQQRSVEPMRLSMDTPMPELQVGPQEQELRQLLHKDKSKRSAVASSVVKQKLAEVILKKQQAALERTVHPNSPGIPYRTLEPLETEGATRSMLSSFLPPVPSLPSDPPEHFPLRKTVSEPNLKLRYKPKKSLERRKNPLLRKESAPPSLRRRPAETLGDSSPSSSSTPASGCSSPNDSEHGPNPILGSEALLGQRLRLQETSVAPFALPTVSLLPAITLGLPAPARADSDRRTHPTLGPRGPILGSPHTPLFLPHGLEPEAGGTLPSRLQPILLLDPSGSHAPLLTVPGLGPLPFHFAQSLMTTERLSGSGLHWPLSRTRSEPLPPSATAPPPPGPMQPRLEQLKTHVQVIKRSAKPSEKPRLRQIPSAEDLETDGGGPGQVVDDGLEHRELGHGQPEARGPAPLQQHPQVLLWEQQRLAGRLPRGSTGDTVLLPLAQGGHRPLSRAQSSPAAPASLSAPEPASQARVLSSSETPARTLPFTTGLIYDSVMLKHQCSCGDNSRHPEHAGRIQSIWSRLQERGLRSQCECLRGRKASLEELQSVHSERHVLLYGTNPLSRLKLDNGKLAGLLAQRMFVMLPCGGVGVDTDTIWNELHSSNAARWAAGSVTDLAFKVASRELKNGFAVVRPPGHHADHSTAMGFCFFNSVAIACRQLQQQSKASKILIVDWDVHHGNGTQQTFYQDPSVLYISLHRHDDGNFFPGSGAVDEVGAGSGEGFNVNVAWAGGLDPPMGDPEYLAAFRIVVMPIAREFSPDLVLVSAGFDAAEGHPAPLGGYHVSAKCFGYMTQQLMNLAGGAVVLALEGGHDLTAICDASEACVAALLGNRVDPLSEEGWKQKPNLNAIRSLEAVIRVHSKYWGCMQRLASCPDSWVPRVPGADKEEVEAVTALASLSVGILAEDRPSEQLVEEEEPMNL
Procedure: as §1, §2

HDAC9 = HDAC9 (Homo sapiens, UniProt Q9UKV0); details: HDAC9 vs HDAC6
Procedure: as §1, §2

HDAC5, sequence (Q9UQL6 whole entry, species assumed): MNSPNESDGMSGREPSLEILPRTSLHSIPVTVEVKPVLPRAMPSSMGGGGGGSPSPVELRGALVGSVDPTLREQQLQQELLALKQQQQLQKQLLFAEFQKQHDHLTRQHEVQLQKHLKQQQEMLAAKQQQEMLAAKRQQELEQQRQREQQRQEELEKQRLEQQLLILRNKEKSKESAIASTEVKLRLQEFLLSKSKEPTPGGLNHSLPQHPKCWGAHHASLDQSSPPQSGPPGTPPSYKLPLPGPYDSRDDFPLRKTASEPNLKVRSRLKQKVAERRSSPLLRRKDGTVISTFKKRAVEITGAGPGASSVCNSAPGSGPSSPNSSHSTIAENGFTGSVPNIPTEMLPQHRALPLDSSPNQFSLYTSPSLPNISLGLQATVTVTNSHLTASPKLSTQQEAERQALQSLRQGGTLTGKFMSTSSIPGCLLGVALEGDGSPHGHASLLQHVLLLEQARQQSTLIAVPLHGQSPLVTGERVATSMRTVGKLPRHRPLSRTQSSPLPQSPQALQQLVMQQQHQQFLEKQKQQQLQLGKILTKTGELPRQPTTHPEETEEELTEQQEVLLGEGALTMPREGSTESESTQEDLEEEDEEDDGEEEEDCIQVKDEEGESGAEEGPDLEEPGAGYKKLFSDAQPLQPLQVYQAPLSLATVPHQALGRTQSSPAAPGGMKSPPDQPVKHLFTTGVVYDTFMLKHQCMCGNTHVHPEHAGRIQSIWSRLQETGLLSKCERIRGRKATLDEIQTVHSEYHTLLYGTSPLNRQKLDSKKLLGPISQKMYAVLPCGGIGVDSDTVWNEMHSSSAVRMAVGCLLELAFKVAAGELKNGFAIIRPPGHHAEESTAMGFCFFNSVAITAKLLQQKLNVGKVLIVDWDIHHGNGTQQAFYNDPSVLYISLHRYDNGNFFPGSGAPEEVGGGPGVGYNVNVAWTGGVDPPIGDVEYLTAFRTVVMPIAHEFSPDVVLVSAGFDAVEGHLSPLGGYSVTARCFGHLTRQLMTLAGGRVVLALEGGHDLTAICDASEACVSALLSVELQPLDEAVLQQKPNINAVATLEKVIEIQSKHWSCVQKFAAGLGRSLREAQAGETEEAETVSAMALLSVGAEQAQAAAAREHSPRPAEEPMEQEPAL
HDAC4, sequence (P56524 whole entry, species assumed): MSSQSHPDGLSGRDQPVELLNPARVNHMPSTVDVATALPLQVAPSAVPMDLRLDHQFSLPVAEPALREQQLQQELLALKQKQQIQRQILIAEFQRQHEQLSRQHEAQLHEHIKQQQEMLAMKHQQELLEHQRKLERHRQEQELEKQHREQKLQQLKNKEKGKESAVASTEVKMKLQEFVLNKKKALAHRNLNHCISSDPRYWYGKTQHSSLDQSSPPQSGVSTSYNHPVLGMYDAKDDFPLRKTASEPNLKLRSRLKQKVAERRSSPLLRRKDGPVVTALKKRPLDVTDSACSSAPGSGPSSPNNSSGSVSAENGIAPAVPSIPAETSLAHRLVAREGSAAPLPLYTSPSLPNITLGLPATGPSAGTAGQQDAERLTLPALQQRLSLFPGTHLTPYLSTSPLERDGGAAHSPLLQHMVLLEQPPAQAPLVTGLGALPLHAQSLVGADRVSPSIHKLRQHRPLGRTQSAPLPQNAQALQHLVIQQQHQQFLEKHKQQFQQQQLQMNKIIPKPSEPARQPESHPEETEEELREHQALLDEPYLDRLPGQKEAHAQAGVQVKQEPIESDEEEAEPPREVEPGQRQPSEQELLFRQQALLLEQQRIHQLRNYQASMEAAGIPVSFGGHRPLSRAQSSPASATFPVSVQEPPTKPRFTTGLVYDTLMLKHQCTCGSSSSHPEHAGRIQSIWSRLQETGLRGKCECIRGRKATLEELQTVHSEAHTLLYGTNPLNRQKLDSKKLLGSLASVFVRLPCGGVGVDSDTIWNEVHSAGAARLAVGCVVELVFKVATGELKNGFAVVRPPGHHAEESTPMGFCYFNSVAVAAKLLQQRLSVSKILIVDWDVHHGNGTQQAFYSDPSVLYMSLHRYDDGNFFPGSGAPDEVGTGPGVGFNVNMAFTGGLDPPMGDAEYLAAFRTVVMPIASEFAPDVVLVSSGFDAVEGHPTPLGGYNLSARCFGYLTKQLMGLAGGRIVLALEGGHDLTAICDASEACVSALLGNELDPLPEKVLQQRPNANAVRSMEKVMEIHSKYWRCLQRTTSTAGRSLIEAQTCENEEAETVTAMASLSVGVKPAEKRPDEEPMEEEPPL
HDAC9, sequence (Q9UKV0 whole entry, species assumed): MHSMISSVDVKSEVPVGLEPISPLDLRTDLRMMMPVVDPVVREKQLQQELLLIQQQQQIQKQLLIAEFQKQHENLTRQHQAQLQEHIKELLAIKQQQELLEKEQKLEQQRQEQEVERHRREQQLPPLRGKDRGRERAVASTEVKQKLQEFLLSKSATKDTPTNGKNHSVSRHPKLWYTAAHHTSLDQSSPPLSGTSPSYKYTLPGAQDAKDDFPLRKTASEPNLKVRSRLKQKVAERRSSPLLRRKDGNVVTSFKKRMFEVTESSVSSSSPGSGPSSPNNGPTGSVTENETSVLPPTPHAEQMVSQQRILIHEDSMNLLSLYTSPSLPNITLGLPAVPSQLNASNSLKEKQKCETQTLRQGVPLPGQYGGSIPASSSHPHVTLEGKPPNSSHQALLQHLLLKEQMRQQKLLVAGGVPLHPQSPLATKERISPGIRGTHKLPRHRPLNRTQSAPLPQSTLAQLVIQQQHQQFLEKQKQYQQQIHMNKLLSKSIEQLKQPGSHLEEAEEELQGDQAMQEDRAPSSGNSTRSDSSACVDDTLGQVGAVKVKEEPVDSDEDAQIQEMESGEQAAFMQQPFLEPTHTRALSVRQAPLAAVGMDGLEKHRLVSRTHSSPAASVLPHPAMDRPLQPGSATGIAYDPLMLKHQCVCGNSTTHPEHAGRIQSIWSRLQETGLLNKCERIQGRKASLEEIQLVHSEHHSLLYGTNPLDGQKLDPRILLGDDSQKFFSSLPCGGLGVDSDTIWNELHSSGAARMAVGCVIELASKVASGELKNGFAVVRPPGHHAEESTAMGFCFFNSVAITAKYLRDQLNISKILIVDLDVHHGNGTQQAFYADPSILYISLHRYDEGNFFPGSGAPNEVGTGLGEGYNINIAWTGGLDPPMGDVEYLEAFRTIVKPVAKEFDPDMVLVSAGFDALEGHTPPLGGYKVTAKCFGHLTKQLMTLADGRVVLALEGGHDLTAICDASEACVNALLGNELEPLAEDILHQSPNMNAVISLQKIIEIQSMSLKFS

COc1ccc(N(C)c2nc(C)nc3ccccc23)cc1OCCCC(=O)NO [23BB, N-hydroxy-4-(2-methoxy-5-(methyl(2-methylquinazolin-4-yl)-amino)phenoxy)butanamide]
> 588.235: Selective Ratio HDAC11 (HDAC11) | Selective Ratio HDAC4 (HDAC4) | Selective Ratio HDAC5 (HDAC5) | Selective Ratio HDAC7 (HDAC7) | Selective Ratio HDAC9 (HDAC9)
